Reference: patent publication US3962445A, “Anti-allergenic carbostyril derivatives” (Beecham Group Limited, priority 1973, dated 1976)

Test system: PCA response
Experiment: rat Passive Cutaneous Anaphylaxis Test (PCA test)
Assay type: in vivo, rat (male Wistar)
Conditions: subcutaneous, as sodium salt
Procedure: Some of the 4-hydroxycarbostyrils prepared in the preceding examples were tested in the rat Passive Cutaneous Anaphylaxis Test (PCA test), described below. They were administered as their sodium salts either in pH 7.2 phosphate buffer (for soluble salts) or as a suspension in 1% methyl cellulose (for insoluble salts).
Male Wistar rats of 250-300g, were injected intraperitoneally with 0.5 ml. of Bordatella pertussis vaccine (containing 4 × 10^10 dead organism per ml) and subcutaneously with 0.5 ml. of an emulsion of 100 mg. of ovalbumin in 2 ml of saline and 3 ml. of incomplete Freunds' adjuvant. Rats were bled by cardiac puncture on day 18, the blood was pooled and separated and serum stored at -20° and thawed only once before use.
0.1 ml of each of six twofold serial dilutions of the serum in 0.9% saline were injected intradermally into separate sites on the shaved dorsal surface of 250-350 g. Male Wistar rats. 72 hours later the animals were challenged by i v injection of 0.3 ml. of 1% ovalbumin mixed with 0.1 ml of a 5% solution of pontamine sky blue dye both in isotonic saline buffered with pH. 7.2 Sorenson buffer (P P S ) The rats were killed after 20 minutes and the diameter of the blue wheals at the antibody injection sites were measured. The starting dilution of the serum was adjusted so that there was no response after challenge, at the site of injection of the highest dilution and a maximum response at the two or three lowest dilutions. Typically, six twofold serial dilutions of the serum 1/4 to […] were used.
Amounts of the compounds were administered to rats by subcutaneous injection, into the nucal region, of a solution of the compound in P.B.S. or as a suspension in 1% methyl cellulose, each amount to a test group of six animals at a specified time prior to intravenous challenge with ovalbumin.
% Inhibition of P.C.A = 100 (1 - a/b)
For those compounds having insoluble sodium salts, the salts were isolated by reaction of the free nitro compound with 2.5N sodium hydroxide and the filtered sodium salt washed free of alkali with water. The dried salts were then administered as a suspension in 1% methyl cellulose.

[1] = 0 h, time 0 mins. prior to i.v. ovalbumin challenge
[2] = 0.5 h, time 30 mins. prior to i.v. ovalbumin challenge
[3] = 1 h, time 60 mins. prior to i.v. ovalbumin challenge

SMILES | inhibition at 25 mg/kg [1] [%] | inhibition at 100 mg/kg [1] [%] | inhibition at 25 mg/kg [2] [%] | inhibition at 100 mg/kg [2] [%] | inhibition at 25 mg/kg [3] [%] | inhibition at 100 mg/kg [3] [%]
O=c1[nH]c2ccccc2c(O)c1[N+](=O)[O-] [Example 1, 4-Hydroxy-3-nitrocarbostyril] | 9 | 33 | 19 | 40 | – | –
O=c1[nH]c2ccc([N+](=O)[O-])cc2c(O)c1[N+](=O)[O-] [Example 2, 3,6-Dinitro-4-hydroxycarbostyril] | 4 | -14 | – | – | 31 | 23
O=c1[nH]c2ccc(Cl)cc2c(O)c1[N+](=O)[O-] [Example 3, 6-Chloro-4-hydroxy-3-nitrocarbostyril] | -39 | -30 | – | – | 33 | 54
Cc1ccc2[nH]c(=O)c([N+](=O)[O-])c(O)c2c1 [Example 4, 4-Hydroxy-6-methyl-3-nitrocarbostyril] | 14 | 30 | – | – | 15 | 23
CCc1ccc2[nH]c(=O)c([N+](=O)[O-])c(O)c2c1 [Example 5, 6-Ethyl-4-hydroxy-3-nitro-carbostyril] | 19 | 26 | – | – | 13 | 33
Cc1cccc2[nH]c(=O)c([N+](=O)[O-])c(O)c12 [Example 6 (a), 4-Hydroxy-5-methyl-3-nitrocarbostyril] | 5 | 7 | – | – | 1 | 51
Cc1ccc2c(O)c([N+](=O)[O-])c(=O)[nH]c2c1 [Example 6 (b), 4-hydroxy-7-methyl-3-nitrocarbostyril] | 12 | 7 | – | – | 1 | 23
Cc1cccc2c(O)c([N+](=O)[O-])c(=O)[nH]c12 [Example 7, 4-Hydroxy-8-methyl-3-nitrocarbostyril] | 23 | 71 | 18 | 36 | – | –
O=c1[nH]c2ccc(Br)cc2c(O)c1[N+](=O)[O-] [Example 8, 6-Bromo-4-hydroxy-3-nitrocarbostyril] | 5 | -11 | – | – | 25 | 19
Cc1ccc(C)c2c(O)c([N+](=O)[O-])c(=O)[nH]c12 [Example 9, 5,8-Dimethyl-4-hydroxy-3-nitrocarbostyril] | 7 | 22 | 9 | 27 | – | –
Cc1cc(C)c2c(O)c([N+](=O)[O-])c(=O)[nH]c2c1 [Example 10, 5,7-Dimethyl-4-hydroxy-3-nitrocarbostyril] | 0 | 22 | – | – | 35 | 44
Cc1cc(C)c2[nH]c(=O)c([N+](=O)[O-])c(O)c2c1 [Example 11, 6,8-Dimethyl-4-hydroxy-3-nitrocarbostyril] | 11 | 0 | – | – | 52 | 51
Cc1ccc2c(O)c([N+](=O)[O-])c(=O)[nH]c2c1C [Example 12, 7,8-Dimethyl-4-hydroxy-3-nitrocarbostyril] | 9 | 50 | 36 | 47 | – | –
O=c1[nH]c2c(Br)cccc2c(O)c1[N+](=O)[O-] [Example 13, 8-Bromo-4-hydroxy-3-nitrocarbostyril] | 36 | 49 | – | – | 32 | 32
O=c1[nH]c2c(Cl)cccc2c(O)c1[N+](=O)[O-] [Example 14, 8-Chloro-4-hydroxy-3-nitrocarbostyril] | 18 | 26 | – | – | 42 | 43
Cc1cc2[nH]c(=O)c([N+](=O)[O-])c(O)c2cc1C [Example 15, 6,7-Dimethyl-4-hydroxy-3-nitrocarbostyril] | 62 | 88 | – | – | 27 | 54
O=c1[nH]c2cc(Cl)ccc2c(O)c1[N+](=O)[O-] [Example 16, 7-Chloro-4-hydroxy-3-nitrocarbostyril] | -3 | 13 | 9 | 63 | – | –
CCc1cc2[nH]c(=O)c([N+](=O)[O-])c(O)c2cc1CC [Example 17, 6,7-Diethyl-4-hydroxy-3-nitrocarbostyril] | 25 | 32 | – | – | 34 | 42
CCn1c(=O)c([N+](=O)[O-])c(O)c2ccccc21 [Example 30, 1-Ethyl-4-hydroxy-3-nitro carbostyril] | 9 | 20 | 34 | 41 | – | –
Cn1c(=O)c([N+](=O)[O-])c(O)c2ccccc21 [Example 31, 4-Hydroxy-1-methyl-3-nitro carbostyril] | 21 | 35 | 26 | 36 | – | –
Cc1ccc2c(c1)c(O)c([N+](=O)[O-])c(=O)n2C [Example 32, 1,6-Dimethyl-4-hydroxy-3-nitro carbostyril] | -12 | 16 | 55 | 26 | – | –
CCn1c(=O)c([N+](=O)[O-])c(O)c2cc(C)ccc21 [Example 33, 1-Ethyl-4-hydroxy-6-methyl-3-nitro carbostyril] | -12 | -1 | – | – | -5 | 16
Cn1c(=O)c([N+](=O)[O-])c(O)c2cc(Cl)ccc21 [Example 34, 6-Chloro-4-hydroxy-1-methyl-3-nitro carbostyril] | -5 | 43 | – | – | 8 | 61
CCn1c(=O)c([N+](=O)[O-])c(O)c2cc(Cl)ccc21 [Example 35, 6-Chloro-1-ethyl-4-hydroxy-3-nitro carbostyril] | -8 | 5 | – | – | 11 | 88
Cn1c(=O)c([N+](=O)[O-])c(O)c2ccc(Cl)cc21 [Example 36, 7-Chloro-4-hydroxy-1-methyl-3-nitro carbostyril] | -4 | 34 | – | – | -2 | 50
O=c1c([N+](=O)[O-])c(O)c2ccccc2n1-c1ccccc1 [Example 37, 4-Hydroxy-3-nitro-1-phenylcarbostyril] | -2 | 13 | 1 | 42 | – | –
Cc1cc2c(O)c([N+](=O)[O-])c(=O)n(C)c2cc1C [Example 38, 4-Hydroxy-3-nitro-1,6,7-trimethylcarbostyril] | 13 | 53 | 14 | 47 | – | –
